# From patent publication US20090054504A1 (KNOPP NEUROSCIENCES, INC., priority 2007, published 2009)
# Where two headings read alike, the source gives them in different places.
# How the values were obtained:
# [1] = target: human cloned dopamine receptors (D3) (Homo sapiens, UniProt P35462); experiment: biochemical
# Method: (§1) These concentrations were tested in cell lines expressing select human cloned dopamine receptors (D2S, D3).
# D1 dopamine receptor = D1 dopamine receptor (Homo sapiens, UniProt P21728); details: literature and own data
# D1 dopamine receptor, sequence (P21728 whole entry): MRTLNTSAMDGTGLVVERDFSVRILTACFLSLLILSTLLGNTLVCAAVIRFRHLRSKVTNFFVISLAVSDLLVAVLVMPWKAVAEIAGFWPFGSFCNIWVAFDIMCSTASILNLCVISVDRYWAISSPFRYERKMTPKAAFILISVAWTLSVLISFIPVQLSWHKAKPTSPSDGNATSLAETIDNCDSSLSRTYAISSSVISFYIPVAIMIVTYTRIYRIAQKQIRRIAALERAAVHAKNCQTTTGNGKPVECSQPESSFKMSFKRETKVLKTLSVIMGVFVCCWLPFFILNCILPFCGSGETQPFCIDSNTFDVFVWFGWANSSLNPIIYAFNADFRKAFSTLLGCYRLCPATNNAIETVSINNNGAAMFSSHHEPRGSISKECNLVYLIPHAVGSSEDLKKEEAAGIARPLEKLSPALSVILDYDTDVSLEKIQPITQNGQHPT
# Method: as §1
# D5 dopamine receptor = D5 dopamine receptor (Homo sapiens, UniProt P21918); details: literature and own data
# D5 dopamine receptor, sequence (P21918 whole entry): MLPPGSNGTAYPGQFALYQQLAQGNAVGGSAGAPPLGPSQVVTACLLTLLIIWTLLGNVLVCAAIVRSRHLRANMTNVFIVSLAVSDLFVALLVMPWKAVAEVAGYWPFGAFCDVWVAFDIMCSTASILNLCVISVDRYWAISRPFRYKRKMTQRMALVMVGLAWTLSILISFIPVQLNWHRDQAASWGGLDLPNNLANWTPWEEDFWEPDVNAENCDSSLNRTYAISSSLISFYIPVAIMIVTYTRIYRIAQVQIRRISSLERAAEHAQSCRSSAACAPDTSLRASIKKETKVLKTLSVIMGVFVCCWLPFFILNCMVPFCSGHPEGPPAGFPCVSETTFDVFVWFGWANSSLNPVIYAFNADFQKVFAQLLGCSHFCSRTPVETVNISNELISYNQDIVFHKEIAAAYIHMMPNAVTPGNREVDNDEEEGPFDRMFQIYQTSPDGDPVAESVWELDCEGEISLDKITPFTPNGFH
# Method: as §1
# [2] = tested on: non-naïve male beagle dogs
# Method: (§2) Doses were administered orally by gavage and clinical observations were taken continuously following dosing: hourly for the first four hours, and then twice daily cage-side observations for the duration of the inter-dose or post-dose interval. Observations were made of clinical signs, mortality, injury and availability of food and water. Animals were fasted for 24 hr prior to dosing. Dogs in each group were exposed to only one drug, or the combination; each dose was administered only once, with a subsequent dose administered after a recovery period of 4 days.
# [3] = tested on: monkeys treated with MPTP; details: from MPTP monkey dose
# in vivo = details: male, dog
# Method: as §2
# [4] = tested on: monkeys treated with MPTP; details: motor deficits and Parkinson-like symptoms; cited from earlier work
# [5] = tested on: Parkinson's disease patients; details: human trials; cited from earlier work
# [6] = tested on: restless legs syndrome patients; details: human trials; cited from earlier work
# rodents = details: single oral dose; cited from earlier work
# dogs = details: single oral dose; cited from earlier work
# human subjects = details: cited from earlier work; for MRTD (maximum recommended therapeutic dose): FDA MRTD database
# [7] = male, beagle, dog, in vivo, 1 study day
# [8] = male, beagle, dog, in vivo, 8 study day
# human cloned dopamine receptors (D3), sequence (P35462 whole entry): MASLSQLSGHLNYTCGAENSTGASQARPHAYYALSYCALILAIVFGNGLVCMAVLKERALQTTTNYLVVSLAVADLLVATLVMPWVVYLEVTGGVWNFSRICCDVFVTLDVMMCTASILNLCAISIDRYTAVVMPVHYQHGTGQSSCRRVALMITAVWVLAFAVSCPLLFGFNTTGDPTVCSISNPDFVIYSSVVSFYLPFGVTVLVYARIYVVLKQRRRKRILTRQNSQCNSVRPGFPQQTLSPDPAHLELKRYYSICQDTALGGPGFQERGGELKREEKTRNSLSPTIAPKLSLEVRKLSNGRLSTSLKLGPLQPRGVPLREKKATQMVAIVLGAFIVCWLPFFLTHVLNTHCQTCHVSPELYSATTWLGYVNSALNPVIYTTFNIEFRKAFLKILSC
structure (smiles),measurement,setting,value
"CCCN[C@H]1CCc2nc(N)sc2C1 [PPX, (6S)-4,5,6,7-tetrahydro-N6-propyl-2,6-benzothiazole-diamine]",IC50,[1],0.94 nM
same,interaction with D1 dopamine receptors,D1 dopamine receptor,no significant interaction
same,interaction with D5 dopamine receptors,D5 dopamine receptor,no significant interaction
same,"human dose equivalent to the dog NOAEL, for a 70 kg individual","[2]; IR dose, from dog data",0.05 mg
same,"human equivalence dose of the dog MTD, for a 70 kg human subject",[2]; from dog data,0.30 mg
same,Behavior/Activity: Activity decreased,"[2]; male, beagle, dog, in vivo",3/4
same,Excretion: Feces soft,"[2]; male, beagle, dog, in vivo",0/4
same,Excretion: Feces watery,"[2]; male, beagle, dog, in vivo",0/4
same,External Appearance: Lacrimation,"[2]; male, beagle, dog, in vivo",0/4
same,Eye/Ocular: Pupils dilated,"[2]; male, beagle, dog, in vivo",0/4
same,Pelage/Skin: Skin warm to touch,"[2]; male, beagle, dog, in vivo",0/4
same,Behavior/Activity: Convulsions - clonic,[2]; [7],0/4
same,Behavior/Activity: Salivation,[2]; [7],0/4
same,Behavior/Activity: Tremors,[2]; [7],1/4
same,Excretion: Emesis,[2]; [7],3/4
same,Excretion: Feces hard,[2]; [7],1/4
same,Excretion: Feces mucoid,[2]; [7],0/4
same,Behavior/Activity: Activity decreased,[2]; [8],0/4
same,Behavior/Activity: Tremors,[2]; [8],0/4
same,Excretion: Emesis,[2]; [8],0/4
same,Excretion: Feces hard,[2]; [8],0/4
same,equivalent human immediate release dose,[3],17 µg/kg
same,equivalent human immediate release dose for a 70 kg individual,[3],1.2 mg
same,NOAEL at 4 days,in vivo,0.7 µg/kg
same,MTD at 4 days,in vivo; po,7.5 µg/kg
same,NOAEL at 4 days,in vivo; po,1.25 µg/kg
same,lowest effective oral immediate release dose,[4],53 µg/kg
same,"lowest effective oral immediate release dose versus placebo, Parkinson's disease",[5],1.1 mg/day
same,"lowest effective dose versus placebo, restless legs syndrome",[6],0.25 mg/day
same,immediate release doses at which deaths occurred (and above),rodents,70000 to 105000 µg/kg
same,dose at which vomiting occurred (and above),dogs,≥ 0.7 µg/kg
same,MRTD (maximum recommended therapeutic dose),human subjects; for a 70 lb. person,7.0 mg/day
same,MRTD (maximum recommended therapeutic dose),human subjects,0.11 mg/kg/day
same,immediate release dose shown to cause somnolence,human subjects; human subjects,1.5 mg
same,starting daily dose not tolerated,human subjects; naïve patient,greater than 0.20 mg
